Measured values taken from patent US11491232B2, “Lactuloside compounds and preparation and use thereof” (Fruithy Holdings Limited, priority 2017, dated 2022).

Experiments:
[1] = Test on stability in mediums in vitro (buffer solutions with different pH, simulated intestinal fluid, simulated gastric fluid); format: physicochemical
Experimental: At 37° C., Compound 17 was incubated in different mediums (buffer solutions with different pH, a simulated intestinal fluid containing pancreatin, and simulated gastric fluid containing pepsin).
(§1) Other typical example compounds were tested for stability according to the above method, and the test results are shown in Table 8 below.

colon flora = assay: Stability in the presence of colon flora (content in colon of rat); format: in vitro ADME, SD rat; details: male, rat, pH 6.8
Experimental: A phosphate buffer solution with a pH of 7.0 was formulated, and then CO2 was introduced to the solution to adjust the pH to 6.8. Then, the content in colon of a male SD rat (body weight: 180-220 g) was placed in a water bath at 37° C., and added into the phosphate buffer solution with a pH of 6.8 as prepared above under the protection of N2 to a concentration of 20% (w/v). The buffer solution was kept in an oxygen-free environment. Then, the test Compound 17 was added to the buffer solution, and the solution was stirred uniformly.
Supernatant was analyzed with HPLC, where the amount of each ingredient was calculated by normalization.
Note: in the above table, “T14.148 (%)” represents the percentage of peak area of the material with a retention time of 14.148 min “T14.713 (%)” represents the percentage of peak area of the material with a retention time of 14.713 min. “T16.392 (%)” represents the percentage of peak area of the material with a retention time of 16.392 min. “T22.624 (%)” represents the percentage of peak area of the material with a retention time of 22.624 min.
as §1

With C[C@]12C=CC(=O)C=C1CC[C@@H]1[C@@H]2C(=O)C[C@@]2(C)[C@H]1CC[C@]2(O)C(=O)COC1(CO)O[C@H](CO)[C@@H](O[C@@H]2O[C@H](CO)[C@H](O)[C@H](O)[C@H]2O)[C@@H]1O (stereo partly drawn) [Compound 17, 17-hydroxyl-21-{[4-O-(β-D-galactopyranosyl)-D-fructofuranosyl]oxy}pregna-1,4-diene-3,11,20-trione] the “Compound 17 (%)” value ([1]; Acetate buffer solution, pH 4.0, 37° C., 0 h) was 99.6%, the “Compound 17 (%)” value ([1]; Acetate buffer solution, pH 4.0, 37° C., 0.5 h) was 99.6% and the “Compound 17 (%)” value ([1]; Acetate buffer solution, pH 4.0, 37° C., 1 h) was 99.5%. The “Compound 17 (%)” value ([1]; Acetate buffer solution, pH 4.0, 37° C., 1.5 h) was 99.4%, the “Compound 17 (%)” value ([1]; Acetate buffer solution, pH 4.0, 37° C., 4 h) was 99.2% and the “Compound 17 (%)” value ([1]; Acetate buffer solution, pH 4.0, 37° C., 20 h) was 97.1%. The “Compound 17 (%)” value ([1]; Acetate buffer solution, pH 4.0, 37° C., 24 h) was 96.5%, the “Compound 17 (%)” value ([1]; Hydrochloric acid solution, pH 1.2, 37° C., 0 h) was 96.0% and the “Compound 17 (%)” value ([1]; Hydrochloric acid solution, pH 1.2, 37° C., 0.5 h) was 47.1%. The “Compound 17 (%)” value ([1]; Hydrochloric acid solution, pH 1.2, 37° C., 1 h) was 22.1%, the “Compound 17 (%)” value ([1]; Hydrochloric acid solution, pH 1.2, 37° C., 2 h) was 4.5% and the “Compound 17 (%)” value ([1]; Hydrochloric acid solution, pH 1.2, 37° C., 3 h) was 1.0%. The “Compound 17 (%)” value ([1]; Hydrochloric acid solution, pH 2.0, 37° C., 0 h) was 99.7%, the “Compound 17 (%)” value ([1]; Hydrochloric acid solution, pH 2.0, 37° C., 0.5 h) was 93.3% and the “Compound 17 (%)” value ([1]; Hydrochloric acid solution, pH 2.0, 37° C., 1 h) was 86.5%. The “Compound 17 (%)” value ([1]; Hydrochloric acid solution, pH 2.0, 37° C., 1.5 h) was 80.1%, the “Compound 17 (%)” value ([1]; Hydrochloric acid solution, pH 2.0, 37° C., 2 h) was 74.6% and the “Compound 17 (%)” value ([1]; Hydrochloric acid solution, pH 2.0, 37° C., 3 h) was 64.5%. The “Compound 17 (%)” value ([1]; Hydrochloric acid solution, pH 2.0, 37° C., 4 h) was 55.3%, the “Compound 17 (%)” value ([1]; Hydrochloric acid solution, pH 2.0, 37° C., 8 h) was 30.8% and the “Compound 17 (%)” value ([1]; Hydrochloric acid solution, pH 2.0, 37° C., 24 h) was 2.5%. The “Compound 17 (%)” value ([1]; Phosphate buffer solution, pH 5.8, 37° C., 0 h) was 99.5%, the “Compound 17 (%)” value ([1]; Phosphate buffer solution, pH 5.8, 37° C., 1 h) was 97.3% and the “Compound 17 (%)” value ([1]; Phosphate buffer solution, pH 5.8, 37° C., 6 h) was 99.4%. For the same molecule, the “Compound 17 (%)” value ([1]; Phosphate buffer solution, pH 5.8, 37° C., 8 h) was 99.5%, the “Compound 17 (%)” value ([1]; Phosphate buffer solution, pH 5.8, 37° C., 33 h) was 99.3% and the “Compound 17 (%)” value ([1]; Phosphate buffer solution, pH 6.8, 37° C., 0 h) was 97.3%. The “Compound 17 (%)” value ([1]; Phosphate buffer solution, pH 6.8, 37° C., 1 h) was 97.5%, the “Compound 17 (%)” value ([1]; Phosphate buffer solution, pH 6.8, 37° C., 6 h) was 99.0% and the “Compound 17 (%)” value ([1]; Phosphate buffer solution, pH 6.8, 37° C., 8 h) was 99.0%. The “Compound 17 (%)” value ([1]; Phosphate buffer solution, pH 6.8, 37° C., 33 h) was 97.6%, the “Compound 17 (%)” value ([1]; Phosphate buffer solution, pH 7.8, 37° C., 0 h) was 97.5% and the “Compound 17 (%)” value ([1]; Phosphate buffer solution, pH 7.8, 37° C., 1 h) was 97.6%. The “Compound 17 (%)” value ([1]; Phosphate buffer solution, pH 7.8, 37° C., 6 h) was 97.6%, the “Compound 17 (%)” value ([1]; Phosphate buffer solution, pH 7.8, 37° C., 8 h) was 97.6% and the “Compound 17 (%)” value ([1]; Phosphate buffer solution, pH 7.8, 37° C., 33 h) was 97.7%. The “Compound 17 (%)” value ([1]; Simulated gastric fluid (containing pepsin) (pH 2.0), 37° C., 0 h) was 97.0%, the “Compound 17 (%)” value ([1]; Simulated gastric fluid (containing pepsin) (pH 2.0), 37° C., 0.5 h) was 53.6% and the “Compound 17 (%)” value ([1]; Simulated gastric fluid (containing pepsin) (pH 2.0), 37° C., 1 h) was 28.9%. The “Compound 17 (%)” value ([1]; Simulated gastric fluid (containing pepsin) (pH 2.0), 37° C., 1.5 h) was 15.6%, the “Compound 17 (%)” value ([1]; Simulated gastric fluid (containing pepsin) (pH 2.0), 37° C., 2 h) was 7.0% and the “Compound 17 (%)” value ([1]; Simulated gastric fluid (containing pepsin) (pH 2.0), 37° C., 3 h) was 2.1%. The “Compound 17 (%)” value ([1]; Simulated intestinal fluid (containing pancreatin) (pH 6.8), 37° C., 0 h) was 97.6%, the “Compound 17 (%)” value ([1]; Simulated intestinal fluid (containing pancreatin) (pH 6.8), 37° C., 1 h) was 97.4% and the “Compound 17 (%)” value ([1]; Simulated intestinal fluid (containing pancreatin) (pH 6.8), 37° C., 6 h) was 97.7%. The “Compound 17 (%)” value ([1]; Simulated intestinal fluid (containing pancreatin) (pH 6.8), 37° C., 8 h) was 97.7%, the “Compound 17 (%)” value ([1]; Simulated intestinal fluid (containing pancreatin) (pH 6.8), 37° C., 33 h) was 96.2% and the “Compound 17 (%)” value ([1]; Water (pH 6.2), 37° C., 0 h) was 97.6%. The “Compound 17 (%)” value ([1]; Water (pH 6.2), 37° C., 1 h) was 97.6%, the “Compound 17 (%)” value ([1]; Water (pH 6.2), 37° C., 6 h) was 97.6% and the “Compound 17 (%)” value ([1]; Water (pH 6.2), 37° C., 8 h) was 98.2%. For the same molecule, the “Compound 17 (%)” value ([1]; Water (pH 6.2), 37° C., 33 h) was 98.0%, the “percentage of remaining Compound 17” value ([1]; pH 2.0 or higher, within 1.5 hours, 37° C.) was “greater than 80%” and the “Compound 17 (%)” value (colon flora; SD, 0 h) was 84.8%. For the same molecule, the “T14.148 (%) (percentage of peak area of the material with a retention time of 14.148 min)” value (colon flora; SD, 0 h) was 13.5%, the “T22.624 (%) (percentage of peak area of the material with a retention time of 22.624 min)” value (colon flora; SD, 0 h) was 0.0% and the “Compound 17 (%)” value (colon flora; SD, 1 h) was 49.0%. For the same molecule, the “T14.148 (%) (percentage of peak area of the material with a retention time of 14.148 min)” value (colon flora; SD, 1 h) was 42.5%, the “T22.624 (%) (percentage of peak area of the material with a retention time of 22.624 min)” value (colon flora; SD, 1 h) was 0.0% and the “Compound 17 (%)” value (colon flora; SD, 2 h) was 25.3%. For the same molecule, the “T22.624 (%) (percentage of peak area of the material with a retention time of 22.624 min)” value (colon flora; SD, 2 h) was 0.0%, the “T22.624 (%) (percentage of peak area of the material with a retention time of 22.624 min)” value (colon flora; SD, 3 h) was 0.0% and the “Compound 17 (%)” value (colon flora; SD, 20 h) was 0.0%. For the same molecule, the “T22.624 (%) (percentage of peak area of the material with a retention time of 22.624 min)” value (colon flora; SD, 20 h) was 7.8%, the “Prednisone (%) (released from Compound 17)” value (“Prednisone (%)” below) (colon flora; Sprague-Dawley (SD), 0 h) was 1.7% and the “T14.713 (%) (percentage of peak area of the material with a retention time of 14.713 min)” value (colon flora; Sprague-Dawley (SD), 0 h) was 0.0%. For the same molecule, the “T16.392 (%) (percentage of peak area of the material with a retention time of 16.392 min)” value (colon flora; Sprague-Dawley (SD), 0 h) was 0.0%, the “Prednisone (%)” value (colon flora; Sprague-Dawley (SD), 1 h) was 8.1% and the “T14.713 (%) (percentage of peak area of the material with a retention time of 14.713 min)” value (colon flora; Sprague-Dawley (SD), 1 h) was 0.0%. The “T16.392 (%) (percentage of peak area of the material with a retention time of 16.392 min)” value (colon flora; Sprague-Dawley (SD), 1 h) was 0.0%, the “Prednisone (%)” value (colon flora; Sprague-Dawley (SD), 2 h) was 14.7% and the “T14.148 (%) (percentage of peak area of the material with a retention time of 14.148 min)” value (colon flora; Sprague-Dawley (SD), 2 h) was 59.1%. For the same molecule, the “T14.713 (%) (percentage of peak area of the material with a retention time of 14.713 min)” value (colon flora; Sprague-Dawley (SD), 2 h) was 0.0%, the “T16.392 (%) (percentage of peak area of the material with a retention time of 16.392 min)” value (colon flora; Sprague-Dawley (SD), 2 h) was 0.0% and the “Prednisone (%)” value (colon flora; Sprague-Dawley (SD), 3 h) was 21.2%. The “T14.148 (%) (percentage of peak area of the material with a retention time of 14.148 min)” value (colon flora; Sprague-Dawley (SD), 3 h) was 65.5%, the “T14.713 (%) (percentage of peak area of the material with a retention time of 14.713 min)” value (colon flora; Sprague-Dawley (SD), 3 h) was 0.0% and the “T16.392 (%) (percentage of peak area of the material with a retention time of 16.392 min)” value (colon flora; Sprague-Dawley (SD), 3 h) was 0.0%. The “Prednisone (%)” value (colon flora; Sprague-Dawley (SD), 20 h) was 39.7%, the “T14.148 (%) (percentage of peak area of the material with a retention time of 14.148 min)” value (colon flora; Sprague-Dawley (SD), 20 h) was 12.7% and the “T14.713 (%) (percentage of peak area of the material with a retention time of 14.713 min)” value (colon flora; Sprague-Dawley (SD), 20 h) was 19.2%. The “T16.392 (%) (percentage of peak area of the material with a retention time of 16.392 min)” value (colon flora; Sprague-Dawley (SD), 20 h) was 6.4%, the “Compound 17 (%)” value (colon flora; Sprague-Dawley, 3 h) was 11.3% and the “percentage of the compound degraded” value (colon flora; Sprague-Dawley, 3 h) was “about 90%”.
